The data set concerns CCRIS mutagenicity, Ames/micronucleus/aberration tests. Put plainly: CCRIS mutagenicity studies.
Setting [1] is: Test System: AMES SALMONELLA TYPHIMURIUM, Strain/Indicator: TA98, Metabolic Activation: NONE, Method: PREINCUBATION
Setting [2] is: Test System: AMES SALMONELLA TYPHIMURIUM, Strain/Indicator: TA100, Metabolic Activation: NONE, Method: PREINCUBATION
The mark [3] stands for this setting: Test System: AMES SALMONELLA TYPHIMURIUM, Strain/Indicator: TA1535, Metabolic Activation: NONE, Method: PREINCUBATION
The mark [4] stands for this setting: Test System: AMES SALMONELLA TYPHIMURIUM, Strain/Indicator: TA1537, Metabolic Activation: NONE, Method: PREINCUBATION

Molecules are shown by their SMILES. Activity calls are given as the source filed them. No rule for the calls is given here.

With `CC(C)(c1ccc(O)cc1)c1ccc(O)cc1`, the mutagenic call reads like this: (End Point: IN VITRO CHROMOSOMAL ABERRATIONS, Test System: CHO CELLS, Metabolic Activation: RAT, LIVER, S-9, AROCLOR 1254) “inactive; negative; previous trial yielded positive result at 50 ug/ml but no dose-respons”; (End Point: In vitro micronucleus, Test System: Human lymphoblastoid AHH-1 cells, Metabolic Activation: None) “active; positive (all doses >10.8 ug/ml)”; (End Point: In vivo micronucleus, Test System: Bone marrow polychromatic erythrocytes, Species: Mouse, Strain/Sex: Swiss/Male, female, Route: Oral) “inactive; negative”; (Test System: AMES SALMONELLA TYPHIMURIUM, Strain/Indicator: TA97A, Metabolic Activation: NONE, Method: STANDARD PLATE) “inactive; negative”; (Test System: AMES SALMONELLA TYPHIMURIUM, Strain/Indicator: TA97A, Metabolic Activation: RAT LIVER S-9, PHENOBARBITAL AND BETA-NAPHTHAFLAVONE, Method: STANDARD PLATE) “inactive; negative”; under setting [1], “inactive; negative”. The mutagenic call reads like this: (Test System: AMES SALMONELLA TYPHIMURIUM, Strain/Indicator: TA98, Metabolic Activation: NONE, Method: STANDARD PLATE) “inactive; negative”; (Test System: AMES SALMONELLA TYPHIMURIUM, Strain/Indicator: TA98, Metabolic Activation: RAT LIVER S-9, AROCLOR 1254, Method: STANDARD PLATE) “inactive; negative”; (Test System: AMES SALMONELLA TYPHIMURIUM, Strain/Indicator: TA98, Metabolic Activation: RAT LIVER S-9, PHENOBARBITAL AND BETA-NAPHTHAFLAVONE, Method: STANDARD PLATE) “inactive; negative”; (Test System: AMES SALMONELLA TYPHIMURIUM, Strain/Indicator: TA98, Metabolic Activation: RAT LIVER S-9, PHENOBARBITAL AND BETA-NAPHTHOFLAVONE, Method: PREINCUBATION) “inactive; negative”; (Test System: AMES SALMONELLA TYPHIMURIUM, Strain/Indicator: TA98, Metabolic Activation: S-9, Method: PREINCUBATION) “inactive; negative”; under setting [2], “inactive; negative”. Further, the mutagenic call runs as follows: (Test System: AMES SALMONELLA TYPHIMURIUM, Strain/Indicator: TA100, Metabolic Activation: NONE, Method: STANDARD PLATE) “inactive; negative”; (Test System: AMES SALMONELLA TYPHIMURIUM, Strain/Indicator: TA100, Metabolic Activation: RAT LIVER S-9, AROCLOR 1254, Method: STANDARD PLATE) “inactive; negative”; (Test System: AMES SALMONELLA TYPHIMURIUM, Strain/Indicator: TA100, Metabolic Activation: RAT LIVER S-9, PHENOBARBITAL AND BETA-NAPHTHAFLAVONE, Method: STANDARD PLATE) “inactive; negative”; (Test System: AMES SALMONELLA TYPHIMURIUM, Strain/Indicator: TA100, Metabolic Activation: RAT LIVER S-9, PHENOBARBITAL AND BETA-NAPHTHOFLAVONE, Method: PREINCUBATION) “inactive; negative”; (Test System: AMES SALMONELLA TYPHIMURIUM, Strain/Indicator: TA100, Metabolic Activation: S-9, Method: PREINCUBATION) “inactive; negative”; (Test System: AMES SALMONELLA TYPHIMURIUM, Strain/Indicator: TA102, Metabolic Activation: NONE, Method: STANDARD PLATE) “inactive; negative”. For the same compound, the mutagenic call (Test System: AMES SALMONELLA TYPHIMURIUM, Strain/Indicator: TA102, Metabolic Activation: RAT LIVER S-9, PHENOBARBITAL AND BETA-NAPHTHAFLAVONE, Method: STANDARD PLATE) was “inactive; negative”; the mutagenic call under setting [3] was “inactive; negative”; the mutagenic call (Test System: AMES SALMONELLA TYPHIMURIUM, Strain/Indicator: TA1535, Metabolic Activation: RAT LIVER S-9, PHENOBARBITAL AND BETA-NAPHTHOFLAVONE, Method: PREINCUBATION) was “inactive; negative”; the mutagenic call under setting [4] was “inactive; negative”; the mutagenic call (Test System: AMES SALMONELLA TYPHIMURIUM, Strain/Indicator: TA1537, Metabolic Activation: RAT LIVER S-9, PHENOBARBITAL AND BETA-NAPHTHOFLAVONE, Method: PREINCUBATION) was “inactive; negative”; the mutagenic call (Test System: CHINESE HAMSTER V-79, Strain/Indicator: V-79 (HPRT)/6-THIOGUANINE, Metabolic Activation: NONE) was “inactive; negative”. In addition, the mutagenic call runs as follows: (Test System: E.COLI, Strain/Indicator: WP2UVRA, Metabolic Activation: NONE, Method: PREINCUBATION) “inactive; negative”; (Test System: E.COLI, Strain/Indicator: WP2UVRA, Metabolic Activation: RAT LIVER S-9, PHENOBARBITAL AND BETA-NAPHTHOFLAVONE, Method: PREINCUBATION) “inactive; negative”.
As for `CCCCOCCOP(=O)(OCCOCCCC)OCCOCCCC`, the mutagenic call is “inactive; negative” (Test System: AMES SALMONELLA TYPHIMURIUM, Strain/Indicator: TA98, Metabolic Activation: HAMSTER, LIVER, S-9, AROCLOR 1254, Method: PREINCUBATION); “inactive; negative” under setting [1]; “inactive; negative” (Test System: AMES SALMONELLA TYPHIMURIUM, Strain/Indicator: TA98, Metabolic Activation: RAT, LIVER, S-9, AROCLOR 1254, Method: PREINCUBATION); “inactive; negative” (Test System: AMES SALMONELLA TYPHIMURIUM, Strain/Indicator: TA100, Metabolic Activation: HAMSTER, LIVER, S-9, AROCLOR 1254, Method: PREINCUBATION); “inactive; negative” under setting [2]; “inactive; negative” (Test System: AMES SALMONELLA TYPHIMURIUM, Strain/Indicator: TA100, Metabolic Activation: RAT, LIVER, S-9, AROCLOR 1254, Method: PREINCUBATION). In addition, the mutagenic call by setting is: (Test System: AMES SALMONELLA TYPHIMURIUM, Strain/Indicator: TA1535, Metabolic Activation: HAMSTER, LIVER, S-9, AROCLOR 1254, Method: PREINCUBATION) “inactive; negative”; under setting [3], “inactive; negative”; (Test System: AMES SALMONELLA TYPHIMURIUM, Strain/Indicator: TA1535, Metabolic Activation: RAT, LIVER, S-9, AROCLOR 1254, Method: PREINCUBATION) “inactive; negative”; (Test System: AMES SALMONELLA TYPHIMURIUM, Strain/Indicator: TA1537, Metabolic Activation: HAMSTER, LIVER, S-9, AROCLOR 1254, Method: PREINCUBATION) “inactive; negative”; under setting [4], “inactive; negative”; (Test System: AMES SALMONELLA TYPHIMURIUM, Strain/Indicator: TA1537, Metabolic Activation: RAT, LIVER, S-9, AROCLOR 1254, Method: PREINCUBATION) “inactive; negative”.
On to `CC(=O)CC(=O)Nc1ccc(O)cc1`, for which the mutagenic call by setting is: (Test System: AMES SALMONELLA TYPHIMURIUM, Strain/Indicator: TA100, Metabolic Activation: HAMSTER, LIVER, S-9, KANECHLOR 400, Method: PREINCUBATION) “inactive; negative”; under setting [2], “inactive; negative”.
For the compound `Cc1cccc(Nc2cc(Cl)nc(SCC(=O)NCCO)n2)c1C`, the mutagenic call (Test System: AMES SALMONELLA TYPHIMURIUM, Strain/Indicator: TA98, Metabolic Activation: NONE) was “inactive; negative”; the mutagenic call (Test System: AMES SALMONELLA TYPHIMURIUM, Strain/Indicator: TA98, Metabolic Activation: RAT, LIVER, S-9, AROCLOR 1254) was “inactive; negative”; the mutagenic call (Test System: AMES SALMONELLA TYPHIMURIUM, Strain/Indicator: TA102, Metabolic Activation: NONE) was “inactive; negative”; the mutagenic call (Test System: AMES SALMONELLA TYPHIMURIUM, Strain/Indicator: TA102, Metabolic Activation: RAT, LIVER, S-9, AROCLOR 1254) is “inactive; negative”; the mutagenic call (Test System: AMES SALMONELLA TYPHIMURIUM, Strain/Indicator: TA104, Metabolic Activation: NONE) is “inactive; negative”; the mutagenic call (Test System: AMES SALMONELLA TYPHIMURIUM, Strain/Indicator: TA104, Metabolic Activation: RAT, LIVER, S-9, AROCLOR 1254) is “inactive; negative”. Moreover, the mutagenic call (Test System: UDS RAT HEPATOCYTES, Strain/Indicator: THY INCORP, Metabolic Activation: NONE, Method: LIQUID SCINTILLATION COUNTING) is “active; positive”.
Turning to `CO[C@@H]1[C@H](C)O[C@@H](O[C@@H]2C[C@H](Oc3cc(O)c4c(O)c5c(cc4c3)C[C@@H]([C@H](OC)C(=O)[C@@H](O)[C@@H](C)O)[C@H](O[C@@H]3C[C@H](OC4C[C@H](O)[C@@H](O)[C@H](C)O4)[C@@H](O)[C@H](C)O3)C5=O)O[C@H](C)[C@@H]2O)C[C@@H]1O` (stereo partly drawn), where the note is “Test System: CHINESE HAMSTER OVARY, Strain/Indicator: CHO (HGPRT)/6-THIOGUANINE, Metabolic Activation: NONE, Method: PREINCUBATION”, the mutagenic call is “active; positive”.

Source of the values: PubChem BioAssay AID1259407 (Chemical Carcinogenesis Research Information System (CCRIS), 2018).
